The conditions of this data set: Crystal; DTA.

Molecules are shown by their SMILES. Numbers after ± are expanded uncertainties.

Turning to `O=C(O)CNCP(=O)(O)O` [(phosphonomethyl)glycine], the Normal melting temperature amounted to 214.7 ± 0.5 °C.

Source of the values: the NIST ThermoML archive (doi:10.1016/j.fluid.2012.05.003).
